Common to all, as to type: cell-based
In assay [1] the target is T1, dopamine transporter (hDAT) (Homo sapiens, UniProt Q01959).
T1 construct: expressed in transfected cells
The assay can be described thus: Inhibition of 3H-dopamine uptake in HEK-293 cells stably transfected with hDAT. Particulars: HEK-293 hDAT cells, 3H-Dopamine 200 nM, 5 min incubation, room temperature; read-out: DRI (dopamine re-uptake inhibition) IC50. How it is done:
(§1) Human embryonic kidney cells (HEK-293) stably transfected with either the human serotonin transporter (hSERT), noradrenaline transporter (hNET) or dopamine transporter (hDAT) were cultured under standard cell culture techniques (cells were grown at 37° C. and 5% CO2 in DMEM-culture media (supplemented with 10% dialysed foetal calf serum (FCS), 2 mM I-glutamine and 250 μg/ml geneticin)). Cells were harvested for the assay to yield a cell suspension of 750,000 cells/ml.
(§2) All test compounds were dissolved in 100% DMSO and diluted down in assay buffer to give appropriate test concentrations. Assays were carried out in 96-well filter bottom plates. Cells (7500 cells/assay well) were pre-incubated in standard assay buffer containing either test compound, standard inhibitor or compound vehicle (1% DMSO) for 5 minutes. Reactions were started by addition of either ^3H-Serotonin, ^3H-Noradrenaline or ^3H-Dopamine substrates. All reactions were carried out at room temperature in a shaking incubator. Incubation times were 5 minutes for the hSERT and hDAT assays and 15 minutes for the hNET assay. […] The quantity of ^3H-substrate incorporated into the cells was then quantified.
(§3) Assay plates were dried in a microwave oven, scintillation fluid added, and radioactivity measured. […]

Assay [2] has as its target T2, noradrenaline transporter (hNET) (Homo sapiens, UniProt P23975).
T2 construct: expressed in transfected cells
Kind of assay: Inhibition of 3H-noradrenaline uptake in HEK-293 cells stably transfected with hNET. The conditions noted are these: HEK-293 hNET cells, 3H-Noradrenaline 200 nM, 15 min incubation, room temperature; read-out: NRI (noradrenaline re-uptake inhibition) IC50. How it is done:
as §1, §2, §3

Assay [3] deals with T3, human serotonin transporter (hSERT) (Homo sapiens, UniProt P31645).
T3 construct: expressed in transfected cells
Kind of assay: Inhibition of 3H-serotonin uptake in HEK-293 cells stably transfected with hSERT. Particulars: HEK-293 hSERT cells, 3H-5HT 50 nM, 5 min incubation, room temperature; read-out: SRI (serotonin re-uptake inhibition) IC50. As for the experimental part:
A number of compounds were tested for biological activity by their ability to inhibit the uptake of serotonin by human serotonin transporters as follows.
as §1
as §2, with “incubator.” for “incubator. Incubation times were 5 minutes for the hSERT and hDAT assays and 15 minutes for the hNET assay.”
as §3

One may read the IC50 as the concentration at which inhibition is half-maximal.

T1 sequence (Q01959 whole entry): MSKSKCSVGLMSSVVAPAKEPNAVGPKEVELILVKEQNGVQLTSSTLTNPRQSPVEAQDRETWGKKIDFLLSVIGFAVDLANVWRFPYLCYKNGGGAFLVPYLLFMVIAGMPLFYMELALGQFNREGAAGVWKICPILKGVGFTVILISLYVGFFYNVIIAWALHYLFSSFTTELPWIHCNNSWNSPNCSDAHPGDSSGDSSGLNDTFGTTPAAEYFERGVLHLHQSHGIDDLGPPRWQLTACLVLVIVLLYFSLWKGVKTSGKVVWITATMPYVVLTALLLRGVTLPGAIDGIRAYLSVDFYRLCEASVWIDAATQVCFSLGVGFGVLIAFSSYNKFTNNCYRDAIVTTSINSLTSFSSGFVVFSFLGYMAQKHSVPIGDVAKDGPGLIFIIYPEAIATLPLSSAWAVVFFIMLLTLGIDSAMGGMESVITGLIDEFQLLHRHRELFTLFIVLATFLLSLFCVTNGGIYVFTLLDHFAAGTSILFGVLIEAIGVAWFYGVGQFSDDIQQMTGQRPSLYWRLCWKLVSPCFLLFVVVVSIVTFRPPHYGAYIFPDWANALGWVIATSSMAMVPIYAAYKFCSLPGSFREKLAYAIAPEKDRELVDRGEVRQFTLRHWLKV
T3 sequence (P31645 whole entry): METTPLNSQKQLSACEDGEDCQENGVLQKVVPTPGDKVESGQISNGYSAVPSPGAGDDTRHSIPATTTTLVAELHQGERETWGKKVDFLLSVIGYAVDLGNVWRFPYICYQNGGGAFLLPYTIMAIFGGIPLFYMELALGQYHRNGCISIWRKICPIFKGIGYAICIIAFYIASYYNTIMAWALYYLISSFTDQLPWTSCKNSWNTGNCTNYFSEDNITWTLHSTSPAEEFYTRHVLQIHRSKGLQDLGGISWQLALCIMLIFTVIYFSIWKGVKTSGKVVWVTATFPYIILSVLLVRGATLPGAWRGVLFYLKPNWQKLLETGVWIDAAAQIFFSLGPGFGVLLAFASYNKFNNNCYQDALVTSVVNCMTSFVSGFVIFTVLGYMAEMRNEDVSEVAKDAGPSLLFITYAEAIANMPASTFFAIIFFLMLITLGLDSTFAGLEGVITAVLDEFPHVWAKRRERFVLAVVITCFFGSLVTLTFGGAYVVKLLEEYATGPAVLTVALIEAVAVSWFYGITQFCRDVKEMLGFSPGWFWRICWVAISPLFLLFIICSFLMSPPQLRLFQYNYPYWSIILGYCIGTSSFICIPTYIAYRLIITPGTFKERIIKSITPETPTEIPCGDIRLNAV
T2 sequence (P23975 whole entry): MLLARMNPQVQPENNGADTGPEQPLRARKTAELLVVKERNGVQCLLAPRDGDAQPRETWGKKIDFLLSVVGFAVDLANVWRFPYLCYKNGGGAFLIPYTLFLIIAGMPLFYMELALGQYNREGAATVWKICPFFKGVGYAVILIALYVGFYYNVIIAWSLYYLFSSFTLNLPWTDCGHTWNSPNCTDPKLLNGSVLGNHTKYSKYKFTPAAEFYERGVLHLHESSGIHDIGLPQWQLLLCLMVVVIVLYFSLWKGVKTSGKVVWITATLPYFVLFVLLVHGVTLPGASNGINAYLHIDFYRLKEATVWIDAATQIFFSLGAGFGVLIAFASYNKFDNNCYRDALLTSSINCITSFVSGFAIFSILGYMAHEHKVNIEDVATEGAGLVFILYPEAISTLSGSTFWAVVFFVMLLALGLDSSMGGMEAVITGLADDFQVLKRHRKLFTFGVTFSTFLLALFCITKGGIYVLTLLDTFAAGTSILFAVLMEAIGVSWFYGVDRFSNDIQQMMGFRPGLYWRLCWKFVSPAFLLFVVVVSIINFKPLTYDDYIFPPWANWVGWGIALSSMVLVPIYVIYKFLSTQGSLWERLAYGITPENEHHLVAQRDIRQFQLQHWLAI

`CSc1ccc(Sc2ccncc2CN(C)C)cc1` [Example 2, N,N-Dimethyl-N-[(4-{[4-(methylsulfanyl)phenyl]sulfanyl}-3-pyridinyl)methyl]amine]: the values for the IC50 in assay [1], in assay [2] and in assay [3] were 11700 nM, 564 nM and 2.2 nM, respectively.

These data come from patent publication US6800652B2, “Diaryl compounds” (Pfizer Inc., priority 2002, dated 2004).
